In PMC4180036 (Clinical pharmacology and therapeutics, 2014):
“And” between values parts separate entries of the source, which are not always exact repeats. Equal values may be shown once. Read-outs that look alike come from different tables or passages of the source.

Tests used:
[1] = Population pharmacokinetic modeling and covariate analysis; type: in vivo, human; conditions: for IIV V1, inter-individual variability on volume of distribution / IIVCL, inter-individual variability on clearance / IOV CL, inter-occasion variability on clearance: expressed as variance; for θKa, first-order absorption rate constant: fixed value; for clearance / Vd: human, plasma, oral; for Vd: θV1, volume of distribution
clinical = conditions: human, in vivo
[2] = other studies; cited from earlier work
NSCLC patients = conditions: 150 mg erlotinib, cited from earlier work
NSCLC = assay: Efficacy: disease control rate at 3 months; type: in vivo, human
[3] = test system: African Americans with NSCLC; assay: Treatment-related toxicities; type: in vivo, human; conditions: for Dermatologic, other than rash: Any, grade 1–3: erythema, hyperpigmentation, pruritus, xerodermia; for Nausea, grade 1–3: only one grade three nausea was recorded
[4] = human, in vivo
[5] = Base model (n=26), Bootstrap median (95% CI)
[6] = Base model (n=26), Estimate (CV %)
[7] = Covariate model (LBM, n=26), Bootstrap median (95% CI)
[8] = Covariate model (LBM, n=26), Estimate (CV %)

C#Cc1cccc(Nc2ncnc3cc(OCCOC)c(OCCOC)cc23)c1 [erlotinib]
θFM (fraction of erlotinib converted to OSI-420, FMET=1/1+exp(FM)) [1, 5]: 1.22 (0.47, 3.33) | IIV V1, inter-individual variability on volume of distribution [1, 5]: 0.90 (0.40, 1.33) | IIVCL, inter-individual variability on clearance [1, 5]: 0.24 (0.005, 0.44) | IOV CL, inter-occasion variability on clearance [1, 5]: 0.58 (0.29, 0.89) | θFM (fraction of erlotinib converted to OSI-420, FMET=1/1+exp(FM)) [1, 6]: 1.41 (12.8) | IIV V1, inter-individual variability on volume of distribution [1, 6]: 0.92 (50.5) | IIVCL, inter-individual variability on clearance [1, 6]: 0.06 (80.8) | IOV CL, inter-occasion variability on clearance [1, 6]: 0.38 (55.5) | θKa, first-order absorption rate constant ([1]; Base model (n=26)): 1.04 h⁻¹ | θFM (fraction of erlotinib converted to OSI-420, FMET=1/1+exp(FM)) [1, 7]: 1.03 (0.23, 3.49) | θLBM, lean body mass covariate term [1, 7]: 1.75 (0.69, 3.08) | IIV V1, inter-individual variability on volume of distribution [1, 7]: 0.92 (0.43, 1.37) | IIVCL, inter-individual variability on clearance [1, 7]: 0.13 and 0.13 (0.001, 0.35) | IOV CL, inter-occasion variability on clearance [1, 7]: 0.51 (0.15, 0.85) | θFM (fraction of erlotinib converted to OSI-420, FMET=1/1+exp(FM)) [1, 8]: 0.88 (26.4) | θLBM, lean body mass covariate term [1, 8]: 1.71 (27.8) | IIV V1, inter-individual variability on volume of distribution [1, 8]: 0.95 (50.7) | IIVCL, inter-individual variability on clearance [1, 8]: 0.02 (127.1) | IOV CL, inter-occasion variability on clearance [1, 8]: 0.30 (67.9) | θKa, first-order absorption rate constant ([1]; Covariate model (LBM, n=26)): 1.04 h⁻¹ | clearance ([1]; both, θCL, erlotinib clearance, Base model (n=26), Bootstrap median (95% CI)): 104 mL/min | clearance ([1]; both, θCL, erlotinib clearance, Base model (n=26), Estimate (CV %)): 104 mL/min | clearance ([1]; both, θCL, erlotinib clearance, Covariate model (LBM, n=26), Bootstrap median (95% CI)): 106 mL/min | clearance ([1]; both, θCL, erlotinib clearance, Covariate model (LBM, n=26), Estimate (CV %)): 107 mL/min | Vd ([1]; both, Base model (n=26), Bootstrap median (95% CI)): 275 L | Vd ([1]; both, Base model (n=26), Estimate (CV %)): 284 L | Vd ([1]; both, Covariate model (LBM, n=26), Estimate (CV %)): 283 L | clearance ([1]; estimated erlotinib clearance from nonlinear mixed-effects modeling, this study): 104 mL/min | AUC(0-t) (clinical; AUC0–24): 12200 ± 6200 ng·h/mL | Tmax (clinical; Tmax): 5 h | range of population estimates for CL/F [2]: 3.29 to 5.82 L/h | dose reductions due to adverse events (NSCLC patients; 81 Caucasian NSCLC patients): 14% | dose reductions due to adverse events (NSCLC patients; 1242 Asian NSCLC patients): 23% | PD (NSCLC; All, n=52 evaluable patients): 40 (78) Number of patients (%) | PR (NSCLC; All, n=52 evaluable patients): 1 (2) Number of patients (%) | 1 year progression free rate (NSCLC; All, n=55 treated patients): 7% | 1 year survival rate (NSCLC; All, n=55 treated patients): 28% | Survival, Median (NSCLC; All, n=55 treated patients): 5.3 months | Survival, Range (NSCLC; All, n=55 treated patients): 0.9–42.8 months | TTP, Median (95% CI) (NSCLC; All, n=55 treated patients): 2.6 (1.9– 2.8) months | TTP, Range (NSCLC; All, n=55 treated patients): 0.3–20.2 months | DCR at 3 months (NSCLC; Arm A, n=26 evaluable patients): 6 (23) Number of patients (%) | PD (NSCLC; Arm A, n=26 evaluable patients): 20 (77) Number of patients (%) | PR (NSCLC; Arm A, n=26 evaluable patients): 1 (4) Number of patients (%) | 1 year progression free rate (NSCLC; Arm A, n=28): 10% | 1 year survival rate (NSCLC; Arm A, n=28): 30% | Survival, Median (NSCLC; Arm A, n=28): 5.3 months | Survival, Range (NSCLC; Arm A, n=28): 0.9–37.4 months | TTP, Median (95% CI) (NSCLC; Arm A, n=28): 2.8 (2.5–3.1) months | TTP, Range (NSCLC; Arm A, n=28): 0.6–14.4 months | DCR at 3 months (NSCLC; Arm B, n=26 evaluable patients): 6 (23) Number of patients (%) | PD (NSCLC; Arm B, n=26 evaluable patients): 20 (77) Number of patients (%) | PR (NSCLC; Arm B, n=26 evaluable patients): 0 Number of patients (%) | 1 year progression free rate (NSCLC; Arm B, n=27): 4% | 1 year survival rate (NSCLC; Arm B, n=27): 26% | Survival, Median (NSCLC; Arm B, n=27): 5.2 months | Survival, Range (NSCLC; Arm B, n=27): 1.3–42.8 months | TTP, Median (95% CI) (NSCLC; Arm B, n=27): 2.4 (1.5–2.7) months | TTP, Range (NSCLC; Arm B, n=27): 0.3–20.2 months | AST elevation ([3]; All, n=55): 4 (7) no. of pts (%) | Anorexia, grade 1–2 ([3]; All, n=55): 14 (25) no. of pts (%) | Anorexia, grade 3 ([3]; All, n=55): 3 (5) no. of pts (%) | Any grade 3+ toxicity ([3]; All, n=55): 11 (20) no. of pts (%) | Any grade 4/5 toxicity ([3]; All, n=55): 1 (2) no. of pts (%) | Dehydration, grade 1–2 ([3]; All, n=55): 1 (2) no. of pts (%) | Dehydration, grade 3 ([3]; All, n=55): 2 (4) no. of pts (%) | Diarrhea: Any grade ([3]; All, n=55): 16 (29) no. of pts (%) | Diarrhea: Grade 1 ([3]; All, n=55): 14 (25) no. of pts (%) | Diarrhea: Grade 2 ([3]; All, n=55): 2 (4) no. of pts (%) | Diarrhea: Grade 3+ ([3]; All, n=55): 0 no. of pts (%) | Hyperbilirubinemia ([3]; All, n=55): 1 (2) no. of pts (%) | Pneumonitis, grade 3 ([3]; All, n=55): 1 (2) no. of pts (%) | Rash, maximum grade: Any grade ([3]; All, n=55): 38 (69) no. of pts (%) | Rash, maximum grade: Grade 1 ([3]; All, n=55): 22 (40) no. of pts (%) | Rash, maximum grade: Grade 2 ([3]; All, n=55): 12 (22) no. of pts (%) | Rash, maximum grade: Grade 3 ([3]; All, n=55): 4 (7) no. of pts (%) | Xerostomia ([3]; All, n=55): 2 (4) no. of pts (%) | Dermatologic, other than rash: Any, grade 1–3 ([3]; All, n=55): 16 (29) no. of pts (%) | Nausea, grade 1–3 ([3]; All, n=55): 8 (15) no. of pts (%) | AST elevation ([3]; Arm A (fixed dose), n=28): 4 (14) no. of pts (%) | Anorexia, grade 1–2 ([3]; Arm A (fixed dose), n=28): 5 (18) no. of pts (%) | Anorexia, grade 3 ([3]; Arm A (fixed dose), n=28): 2 (7) no. of pts (%) | Any grade 3+ toxicity ([3]; Arm A (fixed dose), n=28): 5 (18) no. of pts (%) | Any grade 4/5 toxicity ([3]; Arm A (fixed dose), n=28): 1 (4) no. of pts (%) | Dehydration, grade 1–2 ([3]; Arm A (fixed dose), n=28): 0 no. of pts (%) | Dehydration, grade 3 ([3]; Arm A (fixed dose), n=28): 1 (4) no. of pts (%) | Diarrhea: Any grade ([3]; Arm A (fixed dose), n=28): 9 (32) no. of pts (%) | Diarrhea: Grade 1 ([3]; Arm A (fixed dose), n=28): 7 (25) no. of pts (%) | Diarrhea: Grade 2 ([3]; Arm A (fixed dose), n=28): 2 (7) no. of pts (%) | Diarrhea: Grade 3+ ([3]; Arm A (fixed dose), n=28): 0 no. of pts (%) | Hyperbilirubinemia ([3]; Arm A (fixed dose), n=28): 0 no. of pts (%) | Pneumonitis, grade 3 ([3]; Arm A (fixed dose), n=28): 1 (4) no. of pts (%) | Rash, maximum grade: Any grade ([3]; Arm A (fixed dose), n=28): 19 (68) no. of pts (%) | Rash, maximum grade: Grade 1 ([3]; Arm A (fixed dose), n=28): 12 (43) no. of pts (%) | Rash, maximum grade: Grade 2 ([3]; Arm A (fixed dose), n=28): 7 (25) no. of pts (%) | Rash, maximum grade: Grade 3 ([3]; Arm A (fixed dose), n=28): 0 no. of pts (%) | Xerostomia ([3]; Arm A (fixed dose), n=28): 0 no. of pts (%) | Dermatologic, other than rash: Any, grade 1–3 ([3]; Arm A (fixed dose), n=28): 7 (25) no. of pts (%) | Nausea, grade 1–3 ([3]; Arm A (fixed dose), n=28): 2 (7) no. of pts (%) | AST elevation ([3]; Arm B (dose adjusted), n=27): 0 no. of pts (%) | Anorexia, grade 1–2 ([3]; Arm B (dose adjusted), n=27): 9 (33) no. of pts (%) | Anorexia, grade 3 ([3]; Arm B (dose adjusted), n=27): 1 (4) no. of pts (%) | Any grade 3+ toxicity ([3]; Arm B (dose adjusted), n=27): 6 (22) no. of pts (%) | Any grade 4/5 toxicity ([3]; Arm B (dose adjusted), n=27): 0 no. of pts (%) | Dehydration, grade 1–2 ([3]; Arm B (dose adjusted), n=27): 1 (4) no. of pts (%) | Dehydration, grade 3 ([3]; Arm B (dose adjusted), n=27): 1 (4) no. of pts (%) | Diarrhea: Any grade ([3]; Arm B (dose adjusted), n=27): 7 (26) no. of pts (%) | Diarrhea: Grade 1 ([3]; Arm B (dose adjusted), n=27): 7 (26) no. of pts (%) | Diarrhea: Grade 2 ([3]; Arm B (dose adjusted), n=27): 0 no. of pts (%) | Diarrhea: Grade 3+ ([3]; Arm B (dose adjusted), n=27): 0 no. of pts (%) | Hyperbilirubinemia ([3]; Arm B (dose adjusted), n=27): 1 (4) no. of pts (%) | Pneumonitis, grade 3 ([3]; Arm B (dose adjusted), n=27): 0 no. of pts (%) | Rash, maximum grade: Any grade ([3]; Arm B (dose adjusted), n=27): 19 (70) no. of pts (%) | Rash, maximum grade: Grade 1 ([3]; Arm B (dose adjusted), n=27): 10 (37) no. of pts (%) | Rash, maximum grade: Grade 2 ([3]; Arm B (dose adjusted), n=27): 5 (19) no. of pts (%) | Rash, maximum grade: Grade 3 ([3]; Arm B (dose adjusted), n=27): 4 (15) no. of pts (%) | Xerostomia ([3]; Arm B (dose adjusted), n=27): 2 (7) no. of pts (%) | Dermatologic, other than rash: Any, grade 1–3 ([3]; Arm B (dose adjusted), n=27): 9 (33) no. of pts (%) | Nausea, grade 1–3 ([3]; Arm B (dose adjusted), n=27): 6 (22) no. of pts (%) | patients who experienced rash during the first cycle ([3]; Arm B, of the 27 enrolled patients): 18 patients | diarrhea, % of patients ([3]; all 55 treated patients): 29% | dose reductions for toxicity ([3]; all 55 treated patients): no dose reductions for toxicity | nausea, % of patients ([3]; all 55 treated patients): 15% | patients who experienced any grade 3 toxicity ([3]; all 55 treated patients (11 patients)): 20% | AUC0–24 [4]: 17400 ± 8900 ng·h/mL | Tmax [4]: 2.5 (0–10) hrs
